In PubChem BioAssay (NCI) one finds GI50 and TGI data, which are given here for 24 compounds.

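Grown in 96-well plates, cells were treated for 48 hours with each compound at five concentrations. Insufficient inhibition: endpoint recorded as highest concentration tested. Here, GI50 denotes the concentration required for 50% inhibition of growth. TGI: total growth inhibition.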

Among the test systems are HOP-92 NSCLC; SF-295 CNS; UACC-62 melanoma; HOP-62 NSCLC; KM12 colon; SN12C renal; NCI-H522 lung; SF-539 CNS; RPMI-8226 leukemia.
Test in all cases: inhibition of tumour cell growth, NCI panel, 48 h

On to `Cn1cc(-c2csc(-c3cn(CCCCN4CCCCC4)c4ccccc34)n2)c2cccnc21`, for which the GI50 is 1.32 µM in the assay with HOP-92 NSCLC, 1.64 µM with SF-295 CNS, 1.79 µM in the assay with UACC-62 melanoma and 1.6 µM in the assay on HOP-62 NSCLC. For the same compound, the TGI worked out at 2.7 µM with HOP-92 NSCLC, 3.06 µM with SF-295 CNS, 3.27 µM in the assay on UACC-62 melanoma and 3.19 µM with HOP-62 NSCLC.
Regarding `COC(=O)C(=O)C(C(C)=O)C(=O)NCc1ccc(OC)c(OC)c1` (stereo not drawn), the TGI in the assay on HOP-92 NSCLC, in the assay on KM12 colon, with SN12C renal, in the assay on SF-295 CNS, with UACC-62 melanoma and in the assay on HOP-62 NSCLC was more than 100 µM each time. In addition, the TGI in the assay on NCI-H522 lung and in the assay with SF-539 CNS was more than 100 µM each time.
As for `O=C(CC(=O)C1CCOC1=O)C(=O)Nc1cccc(Cl)c1` (stereo not drawn), the TGI with HOP-92 NSCLC, in the assay on KM12 colon, in the assay on SN12C renal, with SF-295 CNS, in the assay on UACC-62 melanoma and in the assay with HOP-62 NSCLC was more than 100 µM each time. Besides, the TGI in the assay with NCI-H522 lung, in the assay with RPMI-8226 leukemia and in the assay on SF-539 CNS was more than 100 µM each time.
As to `c1coc(-c2c3ccc(=[N+]4CCCCC4)cc-3oc3cc(N4CCCCC4)ccc23)c1`, the GI50 was 0.0502 µM with HOP-92 NSCLC; 0.0591 µM with SN12C renal; 0.0937 µM in the assay with SF-295 CNS; 0.102 µM in the assay with UACC-62 melanoma; 0.0905 µM in the assay on HOP-62 NSCLC. Besides, the TGI turned out to be 0.19 µM with HOP-92 NSCLC; 0.278 µM in the assay with SN12C renal; 0.417 µM in the assay with SF-295 CNS; 1.09 µM with UACC-62 melanoma; 0.435 µM in the assay on HOP-62 NSCLC.
On to `Cc1ccccc1C1=[N+]([O-])c2ccc(Cl)cc2C1=O`, for which the TGI with HOP-92 NSCLC came out at 28 µM; in the assay with KM12 colon it was 27.1 µM; with SN12C renal, 28.5 µM; in the assay with SF-295 CNS, 29.1 µM; in the assay on UACC-62 melanoma, 24.9 µM; with HOP-62 NSCLC it was 42.6 µM. Moreover, the TGI was 23.9 µM in the assay with NCI-H522 lung, 9.37 µM in the assay on RPMI-8226 leukemia and 31.6 µM with SF-539 CNS.
On to `CCC1CN2CCc3cc(OC)c(OC)cc3C2CC1CC1c2cc(OC)c(OC)cc2CCN1C(=O)C1CCCN1` (stereo not drawn), for which the TGI in the assay on HOP-92 NSCLC was more than 100 µM; in the assay on KM12 colon, more than 100 µM; with SN12C renal it was more than 100 µM; with SF-295 CNS, more than 100 µM; with HOP-62 NSCLC it was 71.2 µM; in the assay on NCI-H522 lung, 35.3 µM. Also, the TGI with RPMI-8226 leukemia was more than 100 µM; in the assay on SF-539 CNS it was 37.8 µM.
For the compound `CCOC(=O)NC(=O)c1cn(C(CC)COC(=O)NCCCCCCNC(=O)OCC(CC)n2cc(C(=O)NC(=O)OCC)c(=O)[nH]c2=O)c(=O)[nH]c1=O` (stereo not drawn), the TGI in the assay with KM12 colon, with SN12C renal, in the assay with SF-295 CNS, with UACC-62 melanoma, in the assay with HOP-62 NSCLC and in the assay on NCI-H522 lung was more than 100 µM each time. In the assay on RPMI-8226 leukemia, this compound had a TGI of more than 100 µM.
Take `COC(=O)/C(=N/O)C(C(=O)C=C(C)C)C(=O)C(=O)Nc1nc2ccc([N+](=O)[O-])cc2s1` (stereo not drawn): the TGI in the assay on HOP-92 NSCLC was 42.8 µM; in the assay with KM12 colon, more than 100 µM; with SN12C renal it was more than 100 µM; in the assay with SF-295 CNS, more than 100 µM; in the assay on UACC-62 melanoma, more than 100 µM; in the assay on HOP-62 NSCLC, more than 100 µM. Besides, the TGI was more than 100 µM in the assay with NCI-H522 lung, more than 100 µM in the assay with RPMI-8226 leukemia and 78.3 µM in the assay with SF-539 CNS.
For `Cn1c(=O)nc2n(-c3cc(C(F)(F)F)cc(C(F)(F)F)c3)c3ccccc3nc-2c1=O`, the TGI in the assay on HOP-92 NSCLC, in the assay on KM12 colon, in the assay with SN12C renal, in the assay with SF-295 CNS, in the assay with HOP-62 NSCLC and with RPMI-8226 leukemia was more than 100 µM in each case. Moreover, the TGI in the assay on SF-539 CNS is more than 100 µM.
Consider `CC(C(=O)c1ccc(Cl)cc1)/C(=N/NC(=O)NN)C(=O)Nc1cccc(C(F)(F)F)c1` (stereo not drawn), for which the TGI in the assay with SN12C renal, in the assay with SF-295 CNS, in the assay with UACC-62 melanoma, with RPMI-8226 leukemia and with SF-539 CNS was more than 100 µM in each case.
Take `O=C(N/C(=C\c1ccc([N+](=O)[O-])cc1)c1nc2ccccc2[nH]1)c1ccccc1`: the TGI in the assay with HOP-92 NSCLC, in the assay with KM12 colon, in the assay on SN12C renal, with SF-295 CNS, in the assay with UACC-62 melanoma and in the assay with HOP-62 NSCLC was more than 100 µM each time. In addition, the TGI with NCI-H522 lung, with RPMI-8226 leukemia and in the assay on SF-539 CNS was more than 100 µM in each case.
Turning to `CC(=O)N1CCN(c2ccc(OCC3COC(Cn4ccnc4)(c4ccc(Cl)cc4Cl)O3)cc2)CC1` (stereo not drawn), the TGI in the assay on HOP-92 NSCLC was more than 100 µM; with KM12 colon it was more than 100 µM; with SN12C renal, more than 100 µM; with UACC-62 melanoma, 38 µM; with HOP-62 NSCLC it was more than 100 µM; in the assay on NCI-H522 lung, 99.7 µM. Also, in the assay with RPMI-8226 leukemia, the TGI is more than 100 µM.
For the compound `Cc1ccc(C)c(N2C/C(=N\NC(=O)CC#N)C(c3nc4ccccc4s3)C(=O)C2=O)c1` (stereo not drawn), the TGI in the assay on HOP-92 NSCLC, with KM12 colon, in the assay on SN12C renal, in the assay on SF-295 CNS, in the assay on UACC-62 melanoma and with HOP-62 NSCLC was more than 100 µM throughout. Moreover, in the assay with NCI-H522 lung, the TGI was more than 100 µM.
Consider `COc1c(C)n(CCO)ccc1=O`, for which the TGI in the assay with HOP-92 NSCLC, in the assay on KM12 colon, with SN12C renal, in the assay on SF-295 CNS, with UACC-62 melanoma and with HOP-62 NSCLC was more than 100 µM in each case. The TGI with NCI-H522 lung and in the assay on RPMI-8226 leukemia was more than 100 µM throughout.
`CC(C)(C)c1ccc2c(c1)S(=O)(=O)Nc1ccc(Cl)cc1NS(=O)(=O)c1cc(C(C)(C)C)ccc1OCCOCCOCCO2`: the TGI in the assay with HOP-92 NSCLC is 72.7 µM; with KM12 colon it was more than 100 µM; in the assay with SN12C renal it was more than 100 µM; in the assay on SF-295 CNS, more than 100 µM; in the assay on UACC-62 melanoma, more than 100 µM; with HOP-62 NSCLC it was more than 100 µM. In the assay on SF-539 CNS, this compound gave a TGI of more than 100 µM.
As for `Nc1c(-c2ccccc2-c2c(N)[n+]([O-])c3ccccc3[n+]2[O-])[n+]([O-])c2ccccc2[n+]1[O-]`, the TGI with HOP-92 NSCLC is more than 100 µM; in the assay on KM12 colon it was 50.2 µM; with SN12C renal, more than 100 µM; in the assay on SF-295 CNS, more than 100 µM; in the assay with UACC-62 melanoma it was 26.5 µM; in the assay on NCI-H522 lung, 6.87 µM. Also, the TGI in the assay on RPMI-8226 leukemia was determined as 63.4 µM; in the assay with SF-539 CNS it was 71.7 µM.
Consider `O=[N+]([O-])c1cccc(C2=NOC(C3CCCCC3)C2)c1` (stereo not drawn), for which the TGI with HOP-92 NSCLC, in the assay with KM12 colon, in the assay with SN12C renal, in the assay on SF-295 CNS, in the assay on UACC-62 melanoma and with HOP-62 NSCLC was more than 100 µM in each case. Further, the TGI in the assay on NCI-H522 lung and with SF-539 CNS was more than 100 µM each time.
In the case of `CCOP(=O)(OCC)C(C(=O)OC)C(=O)C(=O)Nc1ccc(Cl)cc1Cl` (stereo not drawn), the TGI with HOP-92 NSCLC, with KM12 colon, with SN12C renal, with UACC-62 melanoma, with HOP-62 NSCLC and with NCI-H522 lung was more than 100 µM in each case. Besides, the TGI in the assay with RPMI-8226 leukemia and with SF-539 CNS was more than 100 µM throughout.
On to `CCC(C)(O)c1cnc(CC(C)C)c(=O)n1O` (stereo not drawn), for which the TGI in the assay with HOP-92 NSCLC, with KM12 colon, in the assay with SN12C renal, with SF-295 CNS, in the assay on UACC-62 melanoma and in the assay with HOP-62 NSCLC was more than 100 µM throughout. This compound yielded a TGI in the assay with RPMI-8226 leukemia of 28.5 µM.
As for `Nc1nc(-c2ccc(Cl)c([N+](=O)[O-])c2)cs1`, the TGI was 74.6 µM in the assay on HOP-92 NSCLC; more than 100 µM in the assay with KM12 colon; more than 100 µM in the assay with SN12C renal; more than 100 µM in the assay with SF-295 CNS; more than 100 µM with UACC-62 melanoma; more than 100 µM with HOP-62 NSCLC. Besides, the TGI with RPMI-8226 leukemia and in the assay on SF-539 CNS was more than 100 µM throughout.
In the case of `CCOCN1COCN(C)C1=O`, the TGI in the assay on HOP-92 NSCLC, in the assay with KM12 colon, with SN12C renal, with SF-295 CNS, in the assay with UACC-62 melanoma and in the assay on HOP-62 NSCLC was more than 100 µM each time. Moreover, the TGI in the assay with RPMI-8226 leukemia and in the assay on SF-539 CNS was more than 100 µM throughout.
For the compound `CC1=C(C#N)C(=O)CC(c2ccc(Cl)cc2)N(C)N1` (stereo not drawn), the TGI in the assay with HOP-92 NSCLC, in the assay on KM12 colon, in the assay with SN12C renal, with SF-295 CNS, in the assay with HOP-62 NSCLC and in the assay on NCI-H522 lung was more than 100 µM throughout. Also, the TGI in the assay on RPMI-8226 leukemia was more than 100 µM.
Take `NC(=O)C(=O)CC(=O)c1ccccc1NC1=CC(=O)C(=O)c2ccccc21`: the TGI was more than 81.2 µM in the assay with HOP-92 NSCLC; more than 100 µM in the assay on KM12 colon; more than 100 µM in the assay with SN12C renal; more than 72.4 µM in the assay on UACC-62 melanoma; more than 100 µM in the assay with HOP-62 NSCLC; more than 100 µM in the assay with NCI-H522 lung. The TGI in the assay on RPMI-8226 leukemia and in the assay with SF-539 CNS was more than 100 µM throughout.
As to `CCN1c2ccccc2-c2c3c1cc(C)cc3c1ccccc1[n+]2CC`, the TGI with KM12 colon came to 1.41 µM; in the assay with SN12C renal, 3.35 µM; with SF-295 CNS, 3.21 µM; with UACC-62 melanoma, 2.23 µM; in the assay with HOP-62 NSCLC, 5.15 µM; in the assay on NCI-H522 lung it was 3.52 µM. The TGI in the assay on RPMI-8226 leukemia amounted to 2.92 µM; in the assay with SF-539 CNS it was 2.51 µM.
